# “Also recorded” adds a separate entry of the source.
# Tests used:
# [1] = Administration of SCFA to mitigate murine GVHD (preliminary experiments); type: in vivo, mice; details: via drinking water (butyrate also via enema); data not shown
# Experimental: Preliminary experiments were done to test the impact of administration of SCFA on murine GVHD. […] Sodium acetate (150 mM) will be delivered via the drinking water of mice beginning 2 weeks prior to BMT. Mice will then be irradiated and transplanted with continued supplementation of sodium acetate. Outcomes that will be evaluated in mice include GVHD clinical scores, survival, and day 14 and 28 tissue pathology. Kaplan-Meier curves will display the overall survival for the two groups. In addition, the area under the curve (AUC) will summarize the weekly total GVHD score from the time of infusion to week 13 for each mouse. Mice will be euthanized to evaluate for pathological evidence of GVHD, as well as to quantify and characterize large intestinal Tregs and alloreactive effector T cells by flow cytometry on days 14 and 28.
# [2] = Retrospective cohort of 283 allo-HSCT patients treated for neutropenic fever: GVHD-related mortality by antibiotic type; type: in vivo, human; details: compared to antibiotics with reduced activity against anaerobes (aztreonam, cefepime)
# Source text: (§1) (A) A retrospective cohort was identified of 283 adult patients who received non-T cell depleted allo-HSCT at our center from 1994 to 2013 and received antibiotics for neutropenic fever. Patients were stratified by exposure to antibiotics with significant activity against anaerobes. Outcomes indicated were depicted by Kaplan-Meier plots and curves compared by the logrank test. (B to G) Six representative clinical cases with time courses depicted of fecal microbiota composition and administration of antibiotic treatments during the course of allo-HSCT. […] (H) Change in abundance of Clostridiales in paired fecal samples from patients undergoing allo-HSCT collected prior to and following treatment with the indicated antibiotics.
# In one study, subjects analyzed retrospectively for impact of antibiotics on clinical outcomes consisted of 283 adult patients undergoing all-HSCT at Memorial Sloan Kettering Cancer Center (MSKCC) from 1994 to 2013. […]
# GVHD was diagnosed clinically, confirmed pathologically by biopsy whenever possible, and classified according to historical consensus criteria as described previously (see Rowlings P A, Przepiorka D, Klein J P, et al. IBMTR Severity Index for grading acute graft-versus host disease: retrospective comparison with Glucksberg grade. Br J Haematol. 1997). […] Disease risk was determined according to the ASBMT RFI 2014 Disease Classification. […]
# [3] = Antibiotic treatment in MHC-matched minor antigen-mismatched allo-HSCT GVHD model (C57BL/6 into 129S1); type: in vivo
# Experimental: FIGS. 16A-16J Imipenem treatment, compared to aztreonam treatment, suppresses anaerobic commensals and elevates GVHD severity in mice. (A) Flora composition analysis using 16S rRNA sequencing prior to and after treatment with the indicated antibiotics in healthy C57BL/6 mice. Mice were treated with subcutaneous (SC) injections of each antibiotic twice a day for two days (500 mg/kg for pip/tazo and 100 mg/kg for others) and stool samples were collected the following day. Values represent mean±SEM (n=3-4). *, P<0.05; **, P<0.01; ****, P<0.0001. Data are representative of two independent experiments. (B to J) Lethally irradiated 129S1 recipients were transplanted with MHC matched C57BL/6 T-cell depleted bone marrow (TCD-BM) cells and 1×10^6 C57BL/6 T cells. Control mice received TCD-BM only. Recipients were treated with imipenem or aztreonam (100 mg/kg, SC, 3 times a week from day 10 to day 24 following allo-HSCT). (B) Comparison of overall survival, with combined data from three independent experiments (n=15-43). ****, P<0.0001. (C) Mice with GVHD treated with antibiotics were sacrificed on day 21 and GVHD histology scores in target organs were quantified by a blinded pathologist. Data are combined from three independent experiments (n=5-20). *, P<0.05. (D) Stool samples obtained from mice treated with imipenem or aztreonam similarly to those in B were collected on day 21 and analyzed by 16S rRNA gene sequencing, followed by principal coordinate analysis of weighted and normalized UniFrac distances. (E and F) Differential taxonomic abundance between aztreonam treated and imipenem treated recipients was analyzed by (E) linear discriminate analysis coupled with effect size measurements (LEfSe) and (F) by LEfSe projected as a cladogram. […] (I) Stool samples collected from mice with GVHD treated with antibiotics were collected on day 21, and evaluated by metagenomic shotgun sequence analysis, comparison of bacterial species abundance determined by taxonomy. […] (J) Principal component analysis of quantification of sequence reads from KEGG gene orthologs comparing samples from mice treated with aztreonam and imipenem.
# (A to G) Lethally irradiated 129S1 recipients were transplanted with C57BL/6 TCD-BM cells with 1×10^6 C57BL/6 T cells. […] (A) Colonic lamina propria-infiltrating leukocytes from recipients were analyzed on day 21 by flow cytometry. […] (C) Lamina propria-infiltrating leukocytes from the colon on day 21 were enriched for CD11b and CD11e simultaneously using a mixture of magnetic beads and IL-23 transcripts were quantified by real time PCR. […] (D) Immunofluorescent staining was used to quantify pSTAT3, CD3, and DAPI positive cells in colonic tissue collected on day 21. […]
# [4] = metronidazole added to ciprofloxacin; cited from earlier work
# Clostridiales = test: Change in Clostridiales abundance in paired stool samples of allo-HSCT patients before and after starting antibiotics; type: in vivo, human; details: before vs after starting the antibiotic; compared to aztreonam
# Source text: as §1
# For each stool specimen, DNA was purified using a phenol-chloroform extraction technique with mechanical disruption (bead-beating) based on a previously described protocol (60). Samples were analyzed using the 454 GS FLX Titanium platform to sequence the V1-V3 region of the bacterial 16S rRNA gene or were alternatively analyzed using the Illumina MiSeq platform to sequence the V4-V5 region of the 16S rRNA gene. Sequence data were compiled and processed using mothur version 1.34 (61), screened and filtered for quality (62). Operational taxonomic units (OTUs) were classified to the species level (63) using a modified form of the Greengenes reference database (64). Principal component analysis was performed upon a weighted and normalized Unifrac (65) distance matrix of OTU abundance in R software. Data from this study has been stored in the NCBI Sequence Read Archive (see url: www.ncbi.nlm.nih.gov/sra).
# HSCT patients were on intestinal bacterial composition. In 2009, our center began to prospectively collect weekly stool samples from patients undergoing allo-HSCT. From this specimen bank, we identified paired stool samples collected from patients prior to as well as following initiation of specific antibiotics during the course of allo-HSCT. […]
# [5] = system: intestinal microbiota (Clostridiales, Enterococcus); test: Flora composition (16S rRNA sequencing of stool) after antibiotic treatment of healthy mice; type: in vivo, C57BL/6 mice
# Experimental: FIGS. 16A-16J Imipenem treatment, compared to aztreonam treatment, suppresses anaerobic commensals and elevates GVHD severity in mice. (A) Flora composition analysis using 16S rRNA sequencing prior to and after treatment with the indicated antibiotics in healthy C57BL/6 mice. Mice were treated with subcutaneous (SC) injections of each antibiotic twice a day for two days (500 mg/kg for pip/tazo and 100 mg/kg for others) and stool samples were collected the following day. Values represent mean±SEM (n=3-4). *, P<0.05; **, P<0.01; ****, P<0.0001. Data are representative of two independent experiments. (B to J) Lethally irradiated 129S1 recipients were transplanted with MHC matched C57BL/6 T-cell depleted bone marrow (TCD-BM) cells and 1×10^6 C57BL/6 T cells. Control mice received TCD-BM only. Recipients were treated with imipenem or aztreonam (100 mg/kg, SC, 3 times a week from day 10 to day 24 following allo-HSCT). (B) Comparison of overall survival, with combined data from three independent experiments (n=15-43). ****, P<0.0001. (C) Mice with GVHD treated with antibiotics were sacrificed on day 21 and GVHD histology scores in target organs were quantified by a blinded pathologist. Data are combined from three independent experiments (n=5-20). *, P<0.05. (D) Stool samples obtained from mice treated with imipenem or aztreonam similarly to those in B were collected on day 21 and analyzed by 16S rRNA gene sequencing, followed by principal coordinate analysis of weighted and normalized UniFrac distances. (E and F) Differential taxonomic abundance between aztreonam treated and imipenem treated recipients was analyzed by (E) linear discriminate analysis coupled with effect size measurements (LEfSe) and (F) by LEfSe projected as a cladogram. Data are representative from more than five independent experiments in D to F. (G and H) Comparisons of bacterial abundance at the phylogenetic levels of (G) order, and (H) genus are shown. Data are combined from 6 independent experiments (n=32-36). ***, P<0.001. (I) Stool samples collected from mice with GVHD treated with antibiotics were collected on day 21, and evaluated by metagenomic shotgun sequence analysis, comparison of bacterial species abundance determined by taxonomy. Numbers 1 through 6 along the x-axis represent the individual subjects. (J) Principal component analysis of quantification of sequence reads from KEGG gene orthologs comparing samples from mice treated with aztreonam and imipenem.
# To further explore causality and mechanisms of the effects of antibiotics with anaerobic activity on GVHD, we turned to experiments in mice. […] Mice were treated by subcutaneous (SC) injections of each antibiotic twice a day for two days (500 mg/kg for pip/tazo and 100 mg/kg for others) and stool samples were collected, followed by 16S rRNA gene amplification and sequence analysis.
# [6] = 100 mg/kg SC twice a day for two days
compound,measurement,setting,value
CC(=O)O [acetate],Benefit on murine GVHD,[1],notable benefit
"C[C@@H](O)[C@H]1C(=O)N2C(C(=O)O)=C(SCCN=CN)C[C@H]12 [imipenem, imipenem-cilastatin]",GVHD-related mortality,[2],increased GVHD-related mortality
same,Mortality / overall survival,"[3]; 100 mg/kg SC 3 times a week from day 10, compared to aztreonam, within 2 weeks of starting treatment",significantly increased mortality; also recorded: aggravated mortality
same,Bacteria past the colonic epithelial barrier,"[3]; mouse, in vivo",dissemination of bacteria past the colonic epithelial barrier
same,"GVHD pathology in skin, liver and small intestine","[3]; mouse, in vivo",no significant differences
Cc1ncc([N+](=O)[O-])n1CCO [metronidazole],Acute GVHD,[4],significant reduction in acute GVHD
same,Change in Clostridiales abundance in stool of patients,Clostridiales,significantly lower abundances of Clostridiales
same,Abundance of Clostridiales in stool,[5]; [6],significantly reduced
same,Abundance of Enterococcus in stool,[5]; [6],increased
piperacillin-tazobactam [pip/tazo],GVHD-related mortality,[2],increased GVHD-related mortality
same,Change in Clostridiales abundance in stool of patients,Clostridiales,significantly lower abundances of Clostridiales; also recorded: more severe loss
same,Amplifiable bacterial DNA in stool,[5]; 500 mg/kg SC twice a day for two days,no amplifiable bacterial DNA

# From patent US20240374655A1, “INTESTINAL MICROBIOTA AND GVHD” (Memorial Sloan-Kettering Cancer Center, priority 2014, published 2024)
